Active and inactive are the calls of the source. Rule as the data show it: active = AC50 below about 11 µM.
test system: not listed separately; experiment: TNFa pathway inhibition counter-screen, B-lineage cells – dose response (AID 1259334); conditions: B cell line, TNFa signaling counterscreen reporter; at 0.0046 µM; active compounds read low;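 also: cells stimulated with TNFa after compound preincubation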

SMILES | max activity
C[C@@H]1CN([C@@H](C)CO)C(=O)Cc2cc(NC(=O)Cc3cn(C)c4ccccc34)ccc2O[C@H]1CN(C)Cc1ccc(C(F)(F)F)cc1 | 14% (inactive)

same assay, conditions: B cell line, TNFa signaling counterscreen reporter; at 0.0135 µM; active compounds read low

SMILES | max activity
CC(=O)Nc1nc2nc(-c3ccccc3)cc(-c3ccccc3)n2n1 | 11.6% (inactive)
C[C@@H]1CN([C@@H](C)CO)C(=O)c2c(c3ccccc3n2C)-c2ccccc2CO[C@H]1CN(C)Cc1cccc(C(=O)Nc2ccccc2N)c1 | 9.96% (inactive)
COc1ccc2c3c(n(C)c2c1)[C@H](CO)N(C(=O)Nc1ccc(F)cc1)CC31CCN(C(=O)Nc2ccc(F)cc2F)CC1 | -5.85% (inactive)

same assay, conditions: B cell line, TNFa signaling counterscreen reporter; at 0.042 µM; active compounds read low

SMILES | max activity
COc1ccc(S(=O)(=O)N(C)C[C@H]2Oc3ccc(NC(=O)Nc4ccc(C(F)(F)F)cc4)cc3C(=O)N([C@@H](C)CO)C[C@H]2C)cc1 | 15.2% (inactive)

same assay, conditions: B cell line, TNFa signaling counterscreen reporter; at 0.12 µM; active compounds read low

SMILES | max activity
C[C@]12CC[C@H](O)C[C@H]1CC[C@@H]1[C@@H]2CC[C@]2(C)[C@@H](c3ccc(=O)oc3)CC[C@]12O | 7.82% (inactive)
O=c1cc(-c2ccccc2)oc2cc(O)cc(O)c12 | 45.8% (inactive)

same assay, conditions: B cell line, TNFa signaling counterscreen reporter; at 1.1 µM; active compounds read low

SMILES | max activity
Cc1ccc(-c2cc(C(=O)N3CC(C)OC(C)C3)c3ccccc3n2)o1 (configuration not stated) | 10.3% (inactive)
COc1ccc2c3c([nH]c2c1)[C@H](CO)N(C(=O)Nc1cccc(F)c1)CC31CCN(S(=O)(=O)c2cccc(C)c2)CC1 | 21.6% (inactive)
Cc1ccc2nc(-c3cc(-c4ccccc4)no3)cn2c1 | 49.4% (inactive)
NS(=O)(=O)c1nn2cc(-c3ccccc3)nc2s1 | 17.7% (inactive)
N#C[C@@H]1[C@@H](c2ccccc2-c2ccccc2)[C@@H](CO)N1C(=O)NC1CCCC1 | 20.9% (inactive)
COc1ccc(-c2cnc3c(c2)C(=O)N([C@H](C)CO)C[C@@H](C)[C@@H](CN(C)C(=O)Nc2c(C)noc2C)O3)cc1 | 22.7% (inactive)
N=C(N)c1ccc(OCCCCCOc2ccc(C(=N)N)cc2)cc1 | 17.9% (inactive)
O=C(Nc1ccc([N+](=O)[O-])cc1Cl)c1cc(Cl)ccc1O | 14.6% (inactive)

same assay, conditions: B cell line, TNFa signaling counterscreen reporter; at 3.5 µM; active compounds read low

SMILES | max activity
C[C@@H]1CN([C@H](C)CO)C(=O)c2cc(NC(=O)Nc3cccc4ccccc34)ccc2O[C@@H](C)CCCCO[C@H]1CN(C)Cc1ccc(C(F)(F)F)cc1 | -8.53% (inactive)
COCCn1c(C)cc(C(=O)COC(=O)c2ccc(Br)o2)c1C | -9.22% (inactive)
N#C[C@H]1[C@@H](c2ccc(C#CC3CCCCC3)cc2)[C@H](CO)N1C(=O)Nc1ccc(F)cc1 | -11.6% (inactive)

same assay, conditions: B cell line, TNFa signaling counterscreen reporter; at 10 µM; active compounds read low

SMILES | max activity
O=C(c1ccc(-c2ccc([N+](=O)[O-])cc2)o1)N1CCCC(C(F)(F)F)C1 (configuration not stated) | 46.5% (inactive)
CCCNC(=O)N1[C@H](CO)[C@H](c2ccc(/C=C/c3ccccc3)cc2)[C@@H]1C#N | 45.4% (inactive)
CCOC(=O)c1cc2c(ccn2C)n1Cc1ccc(C#N)cc1 | 20.1% (inactive)
Cc1noc(C)c1S(=O)(=O)N(C)C[C@H]1OCc2ccccc2-c2c(n(C)c3ccccc23)C(=O)N([C@H](C)CO)C[C@H]1C | -12.3% (inactive)
CCCCc1nc2ccccc2[nH]1 | 6.54% (inactive)

test system: B cell line, TNFa signaling counterscreen reporter; experiment: as above; conditions: not given

SMILES | AC50
CC(C)(C)[S@](=O)N1Cc2cc(C(=O)NCC(F)(F)F)nc(-c3cccc(-c4cccc(F)c4)c3)c2[C@@H]1CCO | > 20 µM (inactive)
N#C[C@H]1[C@H](c2ccc(C#Cc3ccccc3F)cc2)[C@@H](CO)N1C(=O)c1cccnc1 | 9.37 µM
COc1ccc2c3c([nH]c2c1)[C@H](CO)N(C(=O)Nc1ccc(F)cc1)CC31CCN(C(=O)c2ccccc2F)CC1 | 6.12 µM
C[C@@H]1O[C@@H](O[C@H]2C[C@@H](O)[C@]3(CO)[C@H]4[C@H](O)C[C@]5(C)[C@@H](C6COC(=O)C6)CC[C@]5(O)[C@@H]4CC[C@]3(O)C2)[C@H](O)[C@H](O)[C@H]1O (some centres not stated) | 2.76 µM
O=S(=O)(/C(=C\c1ccc(C(F)(F)F)cc1)c1nc2ccccc2[nH]1)c1ccccc1 | 0.497 µM
O=C(O)c1ccc(Nc2nc3c(s2)CCCC3)cc1 | 5.3 µM
C[C@H]1CN([C@@H](C)CO)C(=O)c2c(c3ccccc3n2C)-c2ccccc2CO[C@@H]1CN(C)C(=O)Nc1cccc(C(F)(F)F)c1 | 9.38 µM
C[C@H]1CN([C@@H](C)CO)C(=O)Cc2cc(NC(=O)Cc3cn(C)c4ccccc34)ccc2O[C@H]1CN(C)Cc1ccc(C(F)(F)F)cc1 | > 20 µM (inactive)
OC1(c2ccc(Cl)c(C(F)(F)F)c2)CCN(CCCC(c2ccc(F)cc2)c2ccc(F)cc2)CC1 | 8.99 µM
COc1ccc(S(=O)(=O)Nc2ccc3c(c2)C(=O)N([C@@H](C)CO)C[C@@H](C)[C@@H](CN(C)Cc2ccc(C(F)(F)F)cc2)OCCCC[C@@H](C)O3)cc1 | > 20 µM (inactive)
Cc1noc(C)c1S(=O)(=O)Nc1ccc2c(c1)C(=O)N([C@H](C)CO)C[C@@H](C)[C@H](CN(C)C(=O)Nc1cccc3ccccc13)OCCCC[C@@H](C)O2 | > 20 µM (inactive)
CCN1/C(=C/c2sc(-c3ccccc3C)c[n+]2C)Sc2ccccc21 | 0.574 µM
CC1=C(C#N)c2nc(N)c(C#N)c(C)c2/C1=C\c1ccccc1 | 3.57 µM
CCCC(=O)NC1=C(Cl)C(=O)c2ccccc2C1=O | 0.712 µM
CS(=O)(=O)c1ccc(C(=O)OCC(=O)NC(=O)C2COc3ccccc3O2)cc1[N+](=O)[O-] (configuration not stated) | 5.1 µM
C[C@@H]1CN([C@H](C)CO)C(=O)c2cc(NS(=O)(=O)c3cccs3)ccc2O[C@@H](C)CCCCO[C@H]1CN(C)Cc1ccc(Cl)c(Cl)c1 | > 20 µM (inactive)
CC(=O)OCC(=O)C1(O)CCC2C3CCC4=CC(=O)CCC4(C)C3(Cl)C(O)CC21C (configuration not stated) | > 20 µM (inactive)

SMILES | AC50
O=C1NC2C(O)C(O)C(O)C(O)C2c2cc3c(c(O)c21)OCO3 (configuration not stated) | 0.125 µM
CC(=O)Nc1ccc(Sc2ccc([N+](=O)[O-])o2)cc1 | 1.64 µM
O=C(COc1cccnc1[N+](=O)[O-])c1ccc(Cl)s1 | 4.71 µM
CC1=CC(C)(C)N=C(Nc2nc(C)c3cc(C)cc(C)c3n2)N1 | 2.49 µM
O=C(Cc1ccccc1)N1CC[C@@H]2[C@H]1c1cc(C#Cc3cccc(F)c3)ccc1N[C@@H]2CO | 6.03 µM
C=C1C(=O)O[C@H]2[C@H]1CC/C(C)=C/CC[C@@]1(C)O[C@@H]21 | 3.54 µM
CC1=CC2OC3CC4OC(=O)C=CC=CC(C(C)O)OCC(O)C5(C)OC5C(=O)OCC2(CC1O)C4(C)C31CO1 (configuration not stated) | 0.0273 µM
CC[C@H]1CN2CCc3cc(OC)c(OC)cc3C2C[C@@H]1CC1NCCc2cc(OC)c(OC)cc21 (some centres not stated) | 0.011 µM
O=C(COC(=O)c1ccccc1C(=O)c1ccc(Cl)c([N+](=O)[O-])c1)NC1CC1 | 1.47 µM
CCN(CC)CCCNc1nc2ccccc2c2[nH]c3ccc(OC)cc3c12 | 2.11 µM
CC(OC(=O)c1cc(Br)ccc1O)C(=O)Nc1ccc(S(=O)(=O)N2CCCC2)cc1 (configuration not stated) | 7.82 µM
Cc1[nH]c2ccccc2c1C(c1ccccn1)N1CCC(C(N)=O)CC1 (configuration not stated) | 6 µM
c1ccc(OCCSc2nnc3sc4ccccc4n23)cc1 | 2.98 µM
O=C(Cc1ccccc1)N1CC[C@@H]2[C@H]1c1cc(-c3cccc(F)c3)ccc1N[C@@H]2CO | 10.7 µM
COc1cccc2c1C(=O)c1c(O)c3c(c(O)c1C2=O)C[C@@](O)(C(C)=O)C[C@@H]3O[C@H]1C[C@H](N)[C@H](O)[C@H](C)O1 | 0.359 µM
CC1(C)C(=O)C=C[C@@]2(C)C1C(=O)C(=O)[C@]1(C)C2CC[C@@]2(C)[C@H](c3ccoc3)C[C@H]3O[C@]321 (some centres not stated) | 1.74 µM
CC(=O)OC1C(=O)OCC23CCC4(C)OC4C2OC2CC(OC(=O)C=CC=CC(=O)OCCC1C)C3(C)C21CO1 (configuration not stated) | 0.00412 µM

From PubChem BioAssay AID1259334 (Broad Institute, 2017)
